Laboratory results published in patent US11639350B2, “Heteroaryldihydropyrimidine derivatives and methods of treating hepatitis B infections” (Janssen Pharmaceutica NV, priority 2018, dated 2023).

Experiments:
[1] = Cytotoxicity determination in HepG2.2.15 cells (CCK-8); assay type: cell-based; settings: human, 6 days of compound treatment, CCK-8, highest concentration 100 μM
Outline: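 HepG2.2.15 cells seeded at 5,000 cells/well in 2% FBS medium, incubated overnight at 37° C., then treated 6 days with compounds (8 points, 3-fold dilutions, top 100 μM), medium refreshed once midway. CCK-8 added for 2.5 h; A450 read against 630 nm reference; CC50 calculated, averaged over repeats.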

HBV = HBV inhibitory activity: HBV DNA in the culture medium of HepG2.2.15 cells by q-PCR; assay type: cell-based; settings: Hepatitis B virus, HepG2.2.15, 144 h, HepG2.2.15 cells, 6 days of compound treatment, HBV DNA in culture medium by q-PCR, highest concentration 10 μM; read-out: EC50
Outline: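 HepG2.2.15 cells in 2% FBS medium, 40,000 per well, treated 6 days with compound (medium refreshed once), eight 3-fold dilutions from 10 μM top. HBV DNA extracted from culture medium and quantified by q-PCR; EC50 averaged over repeats. Cytotoxicity run in parallel at 5,000 cells per well, top 100 μM, giving CC50.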

COC(=O)C1=C([C@H]2CC[C@@H](NS(C)(=O)=O)CC2)NC(c2ncc(F)cc2F)=NC1c1ccc(F)cc1Cl (mixture of isomers) [Compound 399, (cis)-Methyl 4-(2-chloro-4-fluorophenyl)-2-(3,5-difluoropyridin-2-yl)-6-(4-(methylsulfonamido)cyclohexyl)-1,4-dihydropyrimidine-5-carboxylate]
CC50 at 6 days [1]: 36800 nM | EC50 (HBV): 33 nM

COC(=O)C1=C([C@H]2CC[C@H](C(=O)O)CC2)NC(c2nccs2)=NC1c1ccc(F)cc1Cl (single isomer, unassigned) [Compound 19, trans-4-(6-(2-Chloro-4-fluorophenyl)-5-(methoxycarbonyl)-2-(thiazol-2-yl)-3,6-dihydropyrimidin-4-yl)cyclohexanecarboxylic Acid]
CC50 at 6 days [1]: 8700 nM | EC50 (HBV): 62 nM

COC(=O)C1=C([C@H]2CCC[C@@H](CO)C2)NC(c2nccs2)=NC1c1ccc(F)cc1Cl (single isomer, unassigned) [Compound 173A, Methyl 4-(2-chloro-4-fluorophenyl)-6-((cis)-3-(hydroxymethyl)cyclohexyl)-2-(thiazol-2-yl)-1,4-dihydropyrimidine-5-carboxylate]
CC50 at 6 days [1]: 18600 nM | EC50 (HBV): 76 nM

COC(=O)C1=C([C@H]2CC[C@H](S(=O)(=O)NCC(C)(C)C(=O)OC(C)(C)C)CC2)NC(c2nccs2)=NC1c1ccc(F)c(F)c1Cl (single isomer, unassigned) [Compound 361X, (trans)-methyl 6-(4-(N-(3-(tert-butoxy)-2,2-dimethyl-3-oxopropyl)sulfamoyl)cyclohexyl)-4-(2-chloro-3,4-difluorophenyl)-2-(thiazol-2-yl)-1,4-dihydropyrimidine-5-carboxylate]
CC50 at 6 days [1]: > 100000 nM | EC50 (HBV): 87 nM

COC(=O)C1=C([C@H]2CC[C@@H](NS(C)(=O)=O)CC2)NC(c2nccs2)=NC1c1ccc(F)cc1Cl (single isomer, unassigned) [Compound 128D, Methyl 4-(2-chloro-4-fluorophenyl)-6-(cis-4-(methylsulfonamido)-cyclohexyl)-2-(thiazol-2-yl)-1,4-dihydropyrimidine-5-carboxylate]
CC50 at 6 days [1]: 22800 nM | EC50 (HBV): 17 nM

COC(=O)C1=C([C@H]2CC[C@H](NS(C)(=O)=O)CC2)NC(c2nccs2)=NC1c1ccc(F)cc1Cl (single isomer, unassigned) [Compound 126B, Methyl 4-(2-chloro-4-fluorophenyl)-6-(trans-4-(methyl-sulfonamido)cyclohexyl)-2-(thiazol-2-yl)-1,4-dihydropyrimidine-5-carboxylate]
CC50 at 6 days [1]: 31800 nM | EC50 (HBV): 343 nM

CCOC(=O)C1=C(C2CCN(S(=O)(=O)c3cnn(CCCCC(=O)O)c3)CC2)NC(c2nccs2)=NC1c1ccc(F)c(F)c1Cl (stereo not drawn) [Compound 463, 5-(4-((4-(6-(2-Chloro-3,4-difluorophenyl)-5-(ethoxycarbonyl)-2-(thiazol-2-yl)-3,6-dihydropyrimidin-4-yl)piperidin-1-yl)sulfonyl)-1H-pyrazol-1-yl)pentanoic acid]
CC50 at 6 days [1]: 12200 nM | EC50 (HBV): 31 nM

COC(=O)C1=C(C23CC(C(=O)O)(C2)C3)NC(c2nccs2)=NC1c1ccc(F)cc1Cl (stereo not drawn) [Compound 258B, 3-(6-(2-Chloro-4-fluorophenyl)-5-(methoxycarbonyl)-2-(thiazol-2-yl)-3,6-dihydropyrimidin-4-yl)bicyclo[1.1.1]pentane-1-carboxylic Acid]
CC50 at 6 days [1]: 27400 nM | EC50 (HBV): 401 nM

COC(=O)C1=C(C2CCN(S(=O)(=O)[C@H]3C[C@H](C(=O)O)C3)CC2)NC(c2nccs2)=NC1c1cccc(F)c1Br (relative stereo) [Compound 439B, (trans)-3-((4-(6-(2-Bromo-3-fluorophenyl)-5-(methoxycarbonyl)-2-(thiazol-2-yl)-3,6-dihydropyrimidin-4-yl)piperidin-1-yl)sulfonyl)cyclobutanecarboxylic Acid]
CC50 at 6 days [1]: 53800 nM | EC50 (HBV): 66 nM

COC(=O)C1=C([C@H]2CC[C@@H](S(=O)(=O)N(C)C)CC2)NC(c2nccs2)=NC1c1ccc(F)c(F)c1Cl (single isomer, unassigned) [Compound 233B, (cis)-Methyl 4-(2-chloro-3,4-difluorophenyl)-6-(4-(N,N-dimethylsulfamoyl)cyclohexyl)-2-(thiazol-2-yl)-1,4-dihydropyrimidine-5-carboxylate]
CC50 at 6 days [1]: 6300 nM | EC50 (HBV): 56 nM

COC(=O)C1=C(C23CC(NS(C)(=O)=O)(C2)C3)NC(c2nccs2)=NC1c1ccc(F)c(F)c1Cl (stereo not drawn) [Compound 204A, Methyl 4-(2-chloro-3,4-difluorophenyl)-6-(3-(methyl-sulfonamido)bicyclo[0.1.1.1]pentan-1-yl)-2-(thiazol-2-yl)-1,4-dihydropyrimidine-5-carboxylate]
CC50 at 6 days [1]: 23800 nM | EC50 (HBV): 7 nM

COC(=O)C1=C(C2CCCC(NS(C)(=O)=O)CC2)NC(c2nccs2)=NC1c1ccc(F)cc1Cl (stereo not drawn) [Compound 190, Methyl 4-(2-chloro-4-fluorophenyl)-6-(4-(methylsulfonamido)-cycloheptyl)-2-(thiazol-2-yl)-1,4-dihydropyrimidine-5-carboxylate]
CC50 at 6 days [1]: 15000 nM | EC50 (HBV): 78 nM

COC(=O)C1=C(C2CCN(S(=O)(=O)[C@H]3CC[C@@H](CC(=O)O)CC3)CC2)NC(c2nccs2)=NC1c1ccc(F)cc1Cl (relative stereo) [Compound 476B, (cis)-2-(4-((4-(6-(2-Chloro-4-fluorophenyl)-5-(methoxycarbonyl)-2-(thiazol-2-yl)-3,6-dihydropyrimidin-4-yl)piperidin-1-yl)sulfonyl)cyclohexyl)acetic Acid]
CC50 at 6 days [1]: 30200 nM | EC50 (HBV): 44 nM

COC(=O)C1=C(C2CCN(S(=O)(=O)[C@H]3C[C@H](C(=O)O)C3)CC2)NC(c2nccs2)=NC1c1cccc(F)c1Cl (stereo partly drawn) [Compound 331C, (trans)-3-((4-(6-(2-Chloro-3-fluorophenyl)-5-(methoxycarbonyl)-2-(thiazol-2-yl)-3,6-dihydropyrimidin-4-yl)piperidin-1-yl)sulfonyl)cyclobutane-carboxylic Acid]
CC50 at 6 days [1]: > 100000 nM | EC50 (HBV): 192 nM

COC(=O)C1=C(C2CCCC3(C2)OCCO3)NC(c2nccs2)=NC1c1ccc(F)cc1Cl (stereo not drawn) [Compound 218, Methyl 4-(2-chloro-4-fluorophenyl)-6-(1,4-dioxaspiro[4.5]decan-7-yl)-2-(thiazol-2-yl)-1,4-dihydropyrimidine-5-carboxylate]
CC50 at 6 days [1]: 29700 nM | EC50 (HBV): 148 nM

COC[C@@H](O)CN([C@H]1CC[C@H](C2=C(C(=O)OC)C(c3ccc(F)c(F)c3Cl)N=C(c3nccs3)N2)CC1)S(C)(=O)=O (single isomer, unassigned) [Compound 245D]
CC50 at 6 days [1]: 12500 nM | EC50 (HBV): 15 nM

COC(=O)C1=C(C2CCCN(S(C)(=O)=O)C2)NC(c2nccs2)=NC1c1cccc(F)c1Cl (single isomer, unassigned) [Compound 98A, Methyl 4-(2-chloro-3-fluorophenyl)-6-(1-(methylsulfonyl)piperidin-3-yl)-2-(thiazol-2-yl)-1,4-dihydropyrimidine-5-carboxylate]
CC50 at 6 days [1]: 11400 nM | EC50 (HBV): 270 nM

CCOC(=O)C1=C([C@H]2CC[C@H](C(=O)O)CC2)NC(c2nccs2)=NC1c1ccc(F)c(F)c1C (stereo partly drawn) [Compound 154A]
CC50 at 6 days [1]: 30700 nM | EC50 (HBV): 71 nM

CCOC(=O)C1=C(C2CCN(S(=O)(=O)c3cnn(CCCCCC(=O)O)c3)CC2)NC(c2nccs2)=NC1c1ccc(F)c(F)c1Cl (stereo not drawn) [Compound 462, 6-(4-((4-(6-(2-Chloro-3,4-difluorophenyl)-5-(ethoxycarbonyl)-2-(thiazol-2-yl)-3,6-dihydropyrimidin-4-yl)piperidin-1-yl)sulfonyl)-1H-pyrazol-1-yl)hexanoic Acid]
CC50 at 6 days [1]: 6600 nM | EC50 (HBV): 24 nM

CCOC(=O)C1=C([C@H]2CC[C@H](C(=O)O)CC2)NC(c2nccs2)=NC1c1cccc(F)c1Cl (single isomer, unassigned) [Compound 23, trans-4-(6-(2-Chloro-3-fluorophenyl)-5-(ethoxycarbonyl)-2-(thiazol-2-yl)-3,6-dihydropyrimidin-4-yl)cyclohexanecarboxylic Acid]
CC50 at 6 days [1]: 47500 nM | EC50 (HBV): 566 nM

COC(=O)C1=C(C2CCN(S(=O)(=O)CCC(=O)O)CC2)NC(c2nccs2)=NC1c1ccc(F)cc1Cl (stereo not drawn) [Compound 105, 3-((4-(6-(2-Chloro-4-fluorophenyl)-5-(methoxycarbonyl)-2-(thiazol-2-yl)-3,6-dihydropyrimidin-4-yl)piperidin-1-yl)sulfonyl)propanoic Acid]
CC50 at 6 days [1]: 14400 nM | EC50 (HBV): 150 nM

COC(=O)C1=C(C2CC2)NC(c2nccs2)=NC1c1ccc(F)cc1Cl (single isomer, unassigned) [Compound 90A, Methyl 4-(2-chloro-4-fluorophenyl)-6-cyclopropyl-2-(thiazol-2-yl)-1,4-dihydropyrimidine-5-carboxylate]
CC50 at 6 days [1]: 26700 nM | EC50 (HBV): 23 nM

COC(=O)C1=C(C2CCNC(=O)C2)NC(c2nccs2)=NC1c1ccc(F)cc1Cl (stereo not drawn) [Compound 3, Methyl 4-(2-chloro-4-fluorophenyl)-6-(2-oxopiperidin-4-yl)-2-(thiazol-2-yl)-1,4-dihydro-pyrimidine-5-carboxylate]
CC50 at 6 days [1]: 32800 nM | EC50 (HBV): 38 nM

COC(=O)C1=C(C2CCN(S(=O)(=O)[C@H]3C[C@H](C(=O)O)C3)CC2)NC(c2nccs2)=NC1c1ccc(F)c(F)c1C (stereo partly drawn) [Compound 309C, (trans)-3-((4-(6-(3,4-Difluoro-2-methylphenyl)-5-(methoxycarbonyl)-2-(thiazol-2-yl)-3,6-dihydropyrimidin-4-yl)piperidin-1-yl)sulfonyl)cyclobutanecarboxylic Acid]
CC50 at 6 days [1]: 36200 nM | EC50 (HBV): 47 nM
